The source of these data is patent US20110190309A1, “PHARMACEUTICAL PRODUCT COMPRISING A […] RECEPTOR ANTAGONIST AND A Beta2-ADRENOCEPTOR AGONIST” (priority 2008, published 2011).

The structures appear in SMILES notation.

The first data set deals with T1, human muscarinic receptors (M3) (Homo sapiens, UniProt P20309).
T1 construct: purchased
T1 sequence (P20309 whole entry): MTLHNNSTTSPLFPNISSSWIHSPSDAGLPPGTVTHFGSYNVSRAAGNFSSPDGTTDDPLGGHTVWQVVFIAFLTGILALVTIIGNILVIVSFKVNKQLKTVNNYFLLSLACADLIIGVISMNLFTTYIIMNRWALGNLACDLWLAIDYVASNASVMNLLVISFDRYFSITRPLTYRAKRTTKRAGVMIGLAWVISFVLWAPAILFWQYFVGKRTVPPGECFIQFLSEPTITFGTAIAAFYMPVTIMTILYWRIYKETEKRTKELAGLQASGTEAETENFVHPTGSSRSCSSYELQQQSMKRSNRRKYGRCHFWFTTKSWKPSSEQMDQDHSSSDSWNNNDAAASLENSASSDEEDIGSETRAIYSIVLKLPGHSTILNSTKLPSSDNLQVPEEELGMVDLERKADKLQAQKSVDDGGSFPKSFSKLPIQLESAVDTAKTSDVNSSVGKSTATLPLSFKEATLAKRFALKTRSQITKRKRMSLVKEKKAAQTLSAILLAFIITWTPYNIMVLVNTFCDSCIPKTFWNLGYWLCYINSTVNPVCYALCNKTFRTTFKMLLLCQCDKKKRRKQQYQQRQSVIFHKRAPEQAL
In words: Muscarinic Receptor Radioligand Binding Assay ([3H]-NMS). As to conditions: human M3 membranes, class symbols of M3 Binding IC50, read-out: M3 pIC50 (converted). The procedure: The inhibitory effects of compounds of the muscarinic antagonists were determined by a Muscarinic Receptor Radioligand Binding Assay. Radioligand binding studies utilising [^3H]-N-methyl scopolamine ([^3H]-NMS) and commercially available cell membranes expressing the human muscarinic receptors (M2 or M3) were used to assess the affinity of muscarinic antagonists for M2 and M3 receptors. Membranes in TRIS buffer were incubated in 96-well plates with [^3H]-NMS and M3 antagonist at various concentrations for 3 hours. Membranes and bound radioligand were then harvested by filtration and allowed to dry overnight. Scintillation fluid was then added and the bound radioligand counted using a Can berra Packard Topcount scintillation counter
In the case of `O=C(C[N+]12CCC(CC1)[C@@H](OC(=O)C1(c3ccccc3)CCCCCC1)C2)Nc1cccnc1` [Example 12, (R)-3-(1-Phenyl-cycloheptanecarbonyloxy)-1-(pyridin-3-ylcarbamoylmethyl)-1-azonia-bicyclo[2.2.2]octane chloride], the IC50 is less than 2 nM.
In the case of `O=C(C[N+]12CCC(CC1)[C@@H](OC(=O)C1(c3ccccc3)CCCCCC1)C2)Nc1ccc(F)cn1` [Example 10, (R)-1-[(5-Fluoro-pyridin-2-ylcarbamoyl)-methyl]-3-(1-phenyl-cycloheptanecarbonyloxy)-1-azonia-bicyclo[2.2.2]octane chloride], the IC50 was less than 2 nM.
For `Cc1cc(NC(=O)C[N+]23CCC(CC2)[C@@H](OC(=O)C2(c4ccccc4)CCCCCC2)C3)ccn1` [Example 11, (R)-1-[(2-Methyl-pyridin-4-ylcarbamoyl)-methyl]-3-(1-phenyl-cycloheptanecarbonyloxy)-1-azonia-bicyclo[2.2.2]octane chloride], the IC50 was less than 2 nM.
Turning to `O=C(C[N+]12CCC(CC1)[C@@H](OC(=O)C1(c3cccc(F)c3)CCCCCC1)C2)Nc1ccon1` [Example 9, (R)-3-[1-(3-Fluoro-phenyl)-cycloheptanecarbonyloxy]-1-(isoxazol-3-ylcarbamoylmethyl)-1-azonia-bicyclo[2.2.2]octane bromide], the IC50 is less than 2 nM.
Same read-out and setting: for `O=C(C[N+]12CCC(CC1)[C@@H](OC(=O)C1(c3cccc(F)c3)CCCCCC1)C2)Nc1cnccn1` [Example 8, (R)-3-[1-(3-Fluoro-phenyl)-cycloheptanecarbonyloxy]-1-(pyrazin-2-ylcarbamoylmethyl)-1-azonia-bicyclo[2.2.2]octane bromide] the value was less than 2 nM.
Still for that read-out and setting: next, `O=C(C[N+]12CCC(CC1)[C@@H](OC(=O)C1(c3ccccc3)CCCCCC1)C2)Nc1cccnn1` [Example 13, (R)-3-(1-Phenyl-cycloheptanecarbonyloxy)-1-(pyridazin-3-ylcarbamoylmethyl)-1-azonia-bicyclo[2.2.2]octane bromide]: less than 2 nM.

Tested on in the next data set: not listed separately
In words: Gravimetric Vapour Sorption (GVS). The class given is physicochemical. As to conditions: at 80% RH. The procedure:
Gravimetric Vapour Sorption (GVS) profiles were measured using a Surface Measurements Systems Dynamic Vapour Sorption DVS-1, or DVS Advantage GVS instruments. The solid sample ca. 1-5 mg was placed into a glass or wire mesh vessel and the weight of the sample was recorded during a dual cycle step method (40 to 90 to 0 to 90 to 0% relative humidity (RH), in steps of 10% RH).
`O=C(C[N+]12CCC(CC1)[C@@H](OC(=O)C1(c3ccccc3)CCCCCC1)C2)Nc1cnccn1.[Cl-]` [Example 2, (R)-3-(1-Phenyl-cycloheptanecarbonyloxy)-1-(pyrazin-2-ylcarbamoylmethyl)-1-azonia-bicyclo[2.2.2]octane chloride] showed a GVS weight increase of 9 % w/w.
As to `O=C(C[N+]12CCC(CC1)[C@@H](OC(=O)C1(c3ccccc3)CCCCCC1)C2)Nc1ccccn1` [Example 14, (R)-3-(1-Phenyl-cycloheptanecarbonyloxy)-1-(pyridin-2-ylcarbamoylmethyl)-1-azonia-bicyclo[2.2.2]octane hemi-naphthalene-1,5-disulfonate], the GVS weight increase was determined as 1 % w/w.
Still for that read-out and setting: next, `O=C(C[N+]12CCC(CC1)[C@@H](OC(=O)C1(c3ccccc3)CCCCCC1)C2)Nc1cnccn1` [Example 5, (R)-3-(1-Phenyl-cycloheptanecarbonyloxy)-1-(pyrazin-2-ylcarbamoylmethyl)-1-azonia-bicyclo[2.2.2]octane 1-hydroxy-naphthalene-2-sulfonate]: roughly 0.3 % w/w; `O=C(C[N+]12CCC(CC1)[C@@H](OC(=O)C1(c3ccccc3)CCCCCC1)C2)Nc1cnccn1` [Example 7, (R)-3-(1-Phenyl-cycloheptanecarbonyloxy)-1-(pyrazin-2-ylcarbamoylmethyl)-1-azonia-bicyclo[2.2.2]octane hemi-naphthalene-1,5-disulfonate]: 1.6 % w/w.
`O=C(C[N+]12CCC(CC1)[C@@H](OC(=O)C1(c3ccccc3)CCCCCC1)C2)Nc1cnccn1` [Example 6, (R)-3-(1-Phenyl-cycloheptanecarbonyloxy)-1-(pyrazin-2-ylcarbamoylmethyl)-1-azonia-bicyclo[2.2.2]octane 2,5-dichloro-benzenesulfonate] registered a GVS weight increase of roughly 0.2 % w/w.
